The NIST ThermoML archive (doi:10.1016/j.jct.2017.07.016)
Numbers after ± are expanded uncertainties.

Experiment: xn = mol fraction of the nth substance listed
Conditions: 96.7 kPa, Liquid; for viscosity: Capillary tube (Ostwald / Ubbelohde) method; for mass density: Vibrating tube method

CCCCCCn1cc[n+](C)c1.[Cl-] [1-hexyl-3-methylimidazolium chloride] + C[S+](C)[O-]
Conditions	mass density [kg/m3]	viscosity [mPa·s]
303.15 K, x1 = 0.141	1078.5 ± 2.2	6.523 ± 1
303.15 K, x1 = 0.278	1068.64 ± 2.2	23.07 ± 3.6
303.15 K, x1 = 0.366	1063.06 ± 2.2	54.37 ± 8.5
303.15 K, x1 = 0.472	1057.13 ± 2.2	134.28 ± 21
303.15 K, x1 = 0.606	1050.34 ± 2.2	343.91 ± 53
303.15 K, x1 = 0.773	1043.22 ± 2.2	806.64 ± 130
303.15 K, x1 = 0.878	1039.66 ± 2.2	2111.1 ± 350
303.15 K, x1 = 1	1036.07 ± 2.2	5718.5 ± 960
308.15 K, x1 = 0.141	1074.26 ± 2.2	5.691 ± 0.89
308.15 K, x1 = 0.278	1064.88 ± 2.2	18.67 ± 2.9
308.15 K, x1 = 0.366	1059.5 ± 2.2	41.74 ± 6.5
308.15 K, x1 = 0.472	1053.74 ± 2.2	100.12 ± 15
308.15 K, x1 = 0.606	1047.15 ± 2.2	242.91 ± 37
308.15 K, x1 = 0.773	1040.19 ± 2.2	554.65 ± 87
308.15 K, x1 = 0.878	1036.71 ± 2.2	1348.9 ± 220
308.15 K, x1 = 1	1033.22 ± 2.2	3430.8 ± 560
313.15 K, x1 = 0.141	1070.08 ± 2.2	4.951 ± 0.77
313.15 K, x1 = 0.278	1061.15 ± 2.2	15.46 ± 2.4
313.15 K, x1 = 0.366	1055.94 ± 2.2	33.33 ± 5.2
313.15 K, x1 = 0.472	1050.36 ± 2.2	76.29 ± 12
313.15 K, x1 = 0.606	1043.96 ± 2.2	176.38 ± 27
313.15 K, x1 = 0.773	1037.17 ± 2.2	384.99 ± 60
313.15 K, x1 = 0.878	1033.77 ± 2.2	895.04 ± 140
313.15 K, x1 = 1	1030.38 ± 2.2	2146.1 ± 350
318.15 K, x1 = 0.141	1065.87 ± 2.2	4.385 ± 0.68
318.15 K, x1 = 0.278	1057.41 ± 2.2	12.95 ± 2
318.15 K, x1 = 0.366	1052.4 ± 2.2	26.72 ± 4.1
318.15 K, x1 = 0.472	1046.99 ± 2.2	58.57 ± 9
318.15 K, x1 = 0.606	1040.76 ± 2.2	130.64 ± 20
318.15 K, x1 = 0.773	1034.12 ± 2.2	274.48 ± 42
318.15 K, x1 = 0.878	1030.8 ± 2.2	607.51 ± 96
318.15 K, x1 = 1	1027.56 ± 2.2	1390.4 ± 220
323.15 K, x1 = 0.141	1061.67 ± 2.2	3.892 ± 0.6
323.15 K, x1 = 0.278	1053.68 ± 2.1	10.99 ± 1.7
323.15 K, x1 = 0.366	1048.87 ± 2.1	21.9 ± 3.4
323.15 K, x1 = 0.472	1043.65 ± 2.1	46.32 ± 7.1
323.15 K, x1 = 0.606	1037.58 ± 2.1	98.7 ± 15
323.15 K, x1 = 0.773	1031.12 ± 2.2	201.06 ± 31
323.15 K, x1 = 0.878	1027.89 ± 2.2	425.84 ± 67
323.15 K, x1 = 1	1024.75 ± 2.2	928.1 ± 150
328.15 K, x1 = 0.141	1057.48 ± 2.1	3.493 ± 0.54
328.15 K, x1 = 0.278	1049.95 ± 2.1	9.439 ± 1.4
328.15 K, x1 = 0.366	1045.35 ± 2.1	18.22 ± 2.8
328.15 K, x1 = 0.472	1040.31 ± 2.1	37.12 ± 5.7
328.15 K, x1 = 0.606	1034.41 ± 2.1	76.27 ± 12
328.15 K, x1 = 0.773	1028.15 ± 2.2	150.51 ± 23
328.15 K, x1 = 0.878	1025.02 ± 2.2	306.13 ± 48
328.15 K, x1 = 1	1021.92 ± 2.2	638.79 ± 99
333.15 K, x1 = 0.141	1053.31 ± 2.1	3.154 ± 0.48
333.15 K, x1 = 0.278	1046.23 ± 2.1	8.18 ± 1.2
333.15 K, x1 = 0.366	1041.84 ± 2.1	15.34 ± 2.4
333.15 K, x1 = 0.472	1036.99 ± 2.1	30.3 ± 4.6
333.15 K, x1 = 0.606	1031.26 ± 2.1	60.05 ± 9.1
333.15 K, x1 = 0.773	1025.19 ± 2.1	114.9 ± 17
333.15 K, x1 = 0.878	1022.16 ± 2.2	227.29 ± 35
333.15 K, x1 = 1	1019.13 ± 2.2	453.59 ± 70
338.15 K, x1 = 0.141	1049.14 ± 2.1	2.85 ± 0.44
338.15 K, x1 = 0.278	1042.51 ± 2.1	7.175 ± 1.1
338.15 K, x1 = 0.366	1038.35 ± 2.1	13.14 ± 2
338.15 K, x1 = 0.472	1033.67 ± 2.1	25.52 ± 3.9
338.15 K, x1 = 0.606	1028.12 ± 2.1	48.07 ± 7.3
338.15 K, x1 = 0.773	1022.24 ± 2.1	89.02 ± 14
338.15 K, x1 = 0.878	1019.29 ± 2.2	169.96 ± 26
338.15 K, x1 = 1	1016.38 ± 2.2	327.52 ± 50
343.15 K, x1 = 0.141	1045.01 ± 2.1	2.594 ± 0.4
343.15 K, x1 = 0.278	1038.81 ± 2.1	6.291 ± 0.96
343.15 K, x1 = 0.366	1034.87 ± 2.1	11.28 ± 1.7
343.15 K, x1 = 0.472	1030.39 ± 2.1	20.88 ± 3.2
343.15 K, x1 = 0.606	1025 ± 2.1	39.06 ± 5.9
343.15 K, x1 = 0.773	1019.29 ± 2.1	70.28 ± 11
343.15 K, x1 = 0.878	1016.44 ± 2.1	129.41 ± 20
343.15 K, x1 = 1	1013.65 ± 2.2	243.04 ± 37
348.15 K, x1 = 0.141	1040.88 ± 2.1	2.378 ± 0.36
348.15 K, x1 = 0.278	1035.11 ± 2.1	5.597 ± 0.85
348.15 K, x1 = 0.366	1031.39 ± 2.1	9.738 ± 1.5
348.15 K, x1 = 0.472	1027.11 ± 2.1	17.65 ± 2.7
348.15 K, x1 = 0.606	1021.88 ± 2.1	32.05 ± 4.8
348.15 K, x1 = 0.773	1016.35 ± 2.1	56.52 ± 8.5
348.15 K, x1 = 0.878	1013.59 ± 2.1	100.3 ± 15
348.15 K, x1 = 1	1010.91 ± 2.2	183.45 ± 28
353.15 K, x1 = 0.141	1036.68 ± 2.1	2.184 ± 0.33
353.15 K, x1 = 0.278	1031.43 ± 2.1	4.998 ± 0.76
353.15 K, x1 = 0.366	1027.93 ± 2.1	8.538 ± 1.3
353.15 K, x1 = 0.472	1023.84 ± 2.1	15.07 ± 2.3
353.15 K, x1 = 0.606	1018.78 ± 2.1	26.7 ± 4
353.15 K, x1 = 0.773	1013.43 ± 2.1	45.71 ± 6.9
353.15 K, x1 = 0.878	1010.75 ± 2.1	81.75 ± 12
353.15 K, x1 = 1	1008.18 ± 2.2	140.06 ± 21
